Assay results as given in patent publication US20240100068A1, “METHODS COMPRISING ADMINISTRATION OF A GLUCOCORTICOID RECEPTOR AGONIST AND AN INHIBITOR OF CALCINEURIN” (Chengdu Anticancer Bioscience, Ltd., priority 2022, published 2024).
“Also recorded” adds a separate entry of the source. Read-outs that look alike come from different tables or passages of the source.

Experiments:
[1] = tested on: murine lung cancer cell line TA2280; assay: Final cell density and vacuolation in lung cancer cell line TA2280; assay type: cell-based; settings: for final cell density: 2 weeks
Source text: (§1) FIG. 5A. are images showing Hydrocortisone and Dexamethasone reduce the final cell density in a murine lung cancer cell line TA2280. The cells were exposed to vehicle or the indicated concentrations of either Hydrocortisone or Dexamethasone for 2 weeks. The cells were then fixed and stained with PI for nuclei to reveal the cell density.

T2Puro [2] = assay: Restoration of contact inhibition and induction of vacuolation in control cell line; assay type: cell-based, murine; settings: FIG. 6A: 7 days, 2 μM of DEX
Protocol: (§2) The indicated cell isogenic cell lines were exposed for 7 days to 2 μM of DEX. The cells were then imaged under an inverted tissue culture microscope (top left) or an EVOS FL Auto microscope after staining with Acridine Orange (bottom left). The area occupied by drug-induced vacuoles was quantified with Image J and data (bottom right). At the endpoint, the cells were also numerated with a Luna cell counter and relative cell number is shown (top right).

T2MycNick cells [3] = assay: Testing compounds for their ability of restoring contact inhibition (vacuolation, cell density); assay type: cell-based, murine; settings: for minimal effective concentration: T2MycNick cells grown beyond confluence, 7-14 days; for diameters of large vacuoles: cells that overgrew beyond confluence; for contact inhibition restoration (CIR) activity: high-density cells
MycNick cells [4] = assay: Soft agar colony formation assay (anchorage-independent growth); assay type: cell-based, murine; settings: FIG. 9: 2 μM of DEX or 5 μM of HC, up to 22 days
Protocol: FIG. 9. are images (left) and graphs (right) showing both Hydrocortisone and Dexamethasone suppress the anchorage-independent growth of T2MycNick cells. The T2MycNick cells were mixed with 0.35% soft agar and transferred to 24-well microplates 24 hours before exposed to vehicle, 2 μM of DEX or 5 μM of HC. Images were acquired with an inverted tissue culture microscope at 1, 9 and 22 days after initiation of drug treatment. The sizes of spheroids were quantified with Image J (right).
The soft agar colony formation assay was performed in 6-well plates with two layers of agar. For the first, 0.75% agar in DMEM medium was melted in a microwave oven and poured to form a bottom layer. Once solidified, 10-100K cells in 1 ml of DMEM containing 0.35% agar was added to form the top layer, which was later covered with 0.5 ml of DMEM. Cell culture medium was changed once every two days until colonies were ready to photograph. The antitumor activity of Hydrocortisone and Dexamethasone was tested in soft agar assays. […] The suppression of growth of the cell line in 3D culture is consistent with the suppressive impact of these compounds on cell density when cells were allowed to grow beyond confluence.

MycNick cells [5] = assay: MTT assay for cellular proliferation; assay type: cell-based, murine; settings: confluence of 20-30%, 1 nM to 5 μM
[6] = tested on: human lung cancer cell line A549; assay: Final cell density and vacuolation in lung cancer cell line A549; assay type: cell-based; settings: for final cell density: 2 weeks
Protocol: as §1, with “5B” for “5A.”, “are graphs and” for “are”, “a” for “a murine”, “A549 and a breast cancer cell line MDA-MB-231).” for “TA2280.”, “then either numerated with a Luna cell counter or” for “then”
Cells were treated for 10 days with Hydrocortisone and a Calcineurin inhibitor either individually or in combination and then stained with PI for DNA before imaged with an EVOS FL auto microscope.

[7] = tested on: breast cancer cell line MDA-MB-231; assay: Final cell density and vacuolation in breast cancer cell line MDA-MB-231; assay type: cell-based; settings: for final cell density: 2 weeks
Source text: as §1, with “5B” for “5A.”, “are graphs and” for “are”, “a” for “a murine”, “A549 and a breast cancer cell line MDA-MB-231).” for “TA2280.”, “then either numerated with a Luna cell counter or” for “then”

T2MycNick cells [8] = assay: Proliferation and viability of cells cultured under sub-confluence; assay type: cell-based, murine; settings: for effect on proliferation and viability: cells grown at sub-confluence
Protocol: (§3) FIG. 1A is a graph showing that DEX has no effect on the viability of murine liver cancer cell lines cultured under sub-confluence. The isogenic murine liver cancer cell lines T2Puro and T2MycNick were passaged and exposed to vehicle or 2 μM of DEX at a confluence of 10%. The cell viability was assayed with Trypan blue exclusion assays at day 3.
FIG. 1C is a graph showing DEX has no effect on the proliferation of murine liver cancer cell lines cultured under sub-confluence the live cell number was calculated daily with an automatic Luna cell counter and relative cell number was shown for T2MycNick.
Exponentially growing murine cells expressing Myc-Nick (T2MycNick cells) were passaged into 24-well plates at a final confluence of 20% and were allowed to attach overnight before being exposed to a test compound at a concentration of 10 μM. T2MycNick cells were generated by expressing the Myc-nick, the N-terminal of the Myc protein, in the T2 cell line, which was, in turn, derived from a MYC-driven mouse liver cancer (Shachaf et al., Nature 2004 Oct. 28; 431(7012):1112-7). The cells were subjected to daily analysis of viability and morphology under an inverted tissue culture microscope or GE InCell Analyzer 2000. Cell density was documented after staining of DNA with PI 7-10 days after the initiation of treatment.

T2MycNick cells [9] = assay: IF analysis of cell-cell junctions (ZO-1, β-catenin) in monolayer zones; assay type: cell-based, murine; settings: 7 days
Protocol: FIG. 14A. Are images (left) and graphs (right) showing relocation of β-catenin to the cell-cell junctions in monolayer zones. The murine liver cancer cell line T2MycNick was treated with the indicated concentration of Hydrocortisone or Dexamethasone for 7 days before fixed for IF analysis of β-catenin. DNA was stained with DAPI. Images were acquired with an EVOS FL auto microscope. The relative signal density alone the line in each subpanel was quantified with Image J.
FIG. 14B. Are images (left) and graphs (right) showing relocation of ZO-1 to the cell-cell junctions in monolayer zones. […] The relative signal density alone the line in each subpanel was quantified with Image J. […]
The following are primary antibodies used in this study. […] Primary antibodies were detected with Rhodamine (TRITC)-conjugated AffiniPure Donkey Anti-Rabbit IgG (H+L) (Cat. # 711-025-152), Fluorescein(FITC)-conjugated Affinipure Goat Anti-Rabbit IgG (H+L) (Cat.#111-095-003), Alexa Fluor488 Affinipure Goat Anti-Mouse IgG (H+L) (Cat. #115-545-003 from Jackson ImmunoResearch at 1:500 dilution. After immunostaining, cells were mounted on microscope slides with 4′,6′-diamidino-2-phenylindole (DAPI)-containing Vectashield mounting solution (Vector Laboratories, Cat. # H1500). For fluorescence detection, an EVOS FL Auto microscope (Thermo Fisher) was used.

T2Bc1-xL cells = assay: Restoration of contact inhibition and induction of vacuolation in Bc1-xL expressing cells; assay type: cell-based, murine; settings: FIG. 6A: 7 days, 2 μM of DEX
Protocol: as §2

T2Puro [10] = assay: Proliferation and viability of cells cultured under sub-confluence; assay type: cell-based, murine
Protocol: as §3
FIG. 1B is a graph showing DEX has no effect on the proliferation of murine liver cancer cell lines cultured under sub-confluence. The live cell number was calculated daily with an automatic Luna cell counter and relative cell number was shown for T2Puro.

SMILES | vacuolation [1] | final cell density [1] | response (contact inhibition, vacuolation) (T2Puro [2]) | diameters of large vacuoles (T2MycNick cells [3]) | contact inhibition restoration (CIR) activity (T2MycNick cells [3]) | anchorage-independent growth (MycNick cells [4]) | vacuolation [6] | final cell density [6] | vacuolation [7] | final cell density [7] | effect on proliferation and viability (T2MycNick cells [8]) | cell-cell junctions in monolayer zones (T2MycNick cells [9]) | sensitivity (contact inhibition, vacuolation) (T2Bc1-xL cells) | also measured
C[C@]12CCC(=O)C=C1CC[C@@H]1[C@@H]2[C@@H](O)C[C@@]2(C)[C@H]1CC[C@]2(O)C(=O)CO [HC001, Hydrocortisone] | induction of vacuolation | Reduction of final cell density | did not respond | about 20 μm | restored contact inhibition | effectively suppressed; also recorded: suppress | induction of vacuolation | Reduction of final cell density | induction of vacuolation | Reduction of final cell density | no detectable effect | restored | did not confer sensitivity | minimal effective concentration (T2MycNick cells [3]; Mus musculus, PI staining, read-out: Conc that reduces > 50% in the cell density): 0.156 µM; minimal effective concentration (T2MycNick cells [3]; Mus musculus, vacuolation covering no less than 10% of a random field, read-out: Min. effective conc. that elicits vacuolation): 0.156 µM; proliferation (MTT) (MycNick cells [5]): neither Hydrocortisone nor Cyclosporin A affected the proliferation; cellular proliferation and viability (T2MycNick cells [8]; 5 μM, grown in sub-confluence): did not affect
C[C@@H]1C[C@H]2[C@@H]3CCC4=CC(=O)C=C[C@]4(C)[C@@]3(F)[C@@H](O)C[C@]2(C)[C@@]1(O)C(=O)CO [HC002, Dexamethasone] | induction of vacuolation | Reduction of final cell density | did not respond | about 20 μm | restored contact inhibition | effectively suppressed; also recorded: suppress | induction of vacuolation | Reduction of final cell density | induction of vacuolation | Reduction of final cell density | no detectable effect | restored | did not confer sensitivity | viability (Trypan blue exclusion) (T2Puro [10]; 2 μM, confluence of 10%, day 3): no effect; proliferation (relative live cell number) (T2Puro [10]; sub-confluence, counted daily): no effect; minimal effective concentration (T2MycNick cells [3]; PI staining, read-out: Conc that reduces > 50% in the cell density): 0.125 µM; minimal effective concentration (T2MycNick cells [3]; vacuolation covering no less than 10% of a random field, read-out: Min. effective conc. that elicits vacuolation): 0.125 µM; viability (Trypan blue exclusion) (T2MycNick cells [8]; 2 μM, confluence of 10%, day 3): no effect; proliferation (relative live cell number) (T2MycNick cells [8]; sub-confluence, counted daily): no effect
